This assay concerns human sebocytes. Briefly: Sebum suppression in cultured human sebocytes (14C-acetate incorporation), alone or with retinol. Format: cell-based. The settings on record: for sebum suppressive activity (in words): agent alone, summary of Tables 1-6. As for the experimental part: Compounds A through E were tested for their potential to suppress sebum expression, alone or in the presence of a retinoid.
Secondary cultures of human sebocytes obtained from an adult […] were grown in 48-well tissue culture plates (Costar Corp.; Cambridge, MA) or 96-well tissue culture plates (Packard Co.; Meriden, CT) until confluent.
Sebocyte growth medium consisted of Clonetics Keratinocyte Basal Medium (KBM) supplemented with 14 μg/ml bovine pituitary extract, 0.4 μg/ml hydrocortisone, 5 μg/ml insulin, […], 1.2 ×10^-10 M cholera toxin, 100 units/ml penicillin, and 100 μg/ml streptomycin.
All cultures were incubated at 37° C. in the presence of 7.5% CO2. Medium was changed three times per week.
On the day of experimentation, the growth medium was removed and the sebocytes washed three times with sterile Dulbecco's Modified Eagle Medium (DMEM; phenol red free). Fresh DMEM was added to each sample (duplicates, triplicates, or quadruplicates depending on the experiment) with 5 microliter of test agent solubilized in ethanol either alone or in the presence of one or 10 micromolar of retinol. Controls consisted of addition of ethanol alone, retinol alone, or phenol red, which has estrogen-like activity and is included as a positive control.
Each plate was returned to the incubator for 20 hours followed by the addition of 14C-acetate buffer (5 mM final concentration, 56 mCi/mmol specific activity). Sebocytes were returned to the incubator for four hours after which each culture was rinsed three times with phosphate buffered saline to remove unbound label. Radioactive label remaining in the sebocytes was harvested and counted using a Beckman scintillation counter.

Read-outs that look alike come from different tables or passages of the source.

With `CSc1ccc(NC(C)CC(c2ccccc2)c2c(O)c3ccccc3oc2=O)cc1` (centres unmarked) [Compound A], the “sebum suppressive activity (in words)” value was “had sebum suppressive activity”. The “% of Control” value (Experiment A, 1 μM test agent + 10 μM Retinol) worked out at 94.3%. The “% of Control” value (Experiment A, 1 μM test agent alone) is listed as 93.8%. For the same compound, the “% of Control” value (Experiment A, 10 μM test agent + 10 μM Retinol) is 88.6%. For the same compound, the “% of Control” value (Experiment A, 10 μM test agent alone) was found to be 78.1%. Further, where the note is “Experiment A, 100 μM test agent + 10 μM Retinol”, the “% of Control” value is on record as 6.2%. The “% of Control” value (Experiment A, 100 μM test agent alone) stood at 12.5%. Besides, under “Experiment B (n = 3), 1 μM test agent + 1 μM Retinol”, the “% of Control” value is listed as 93.3%. Further, where the note is “Experiment B (n = 3), 1 μM test agent + 10 μM Retinol”, the “% of Control” value is listed as 85.4%. In addition, the “% of Control” value (Experiment B (n = 3), 1 μM test agent alone) was 102.1%. Moreover, the “% of Control” value (Experiment B (n = 3), 10 μM test agent + 1 μM Retinol) is 80.2%. Under “Experiment B (n = 3), 10 μM test agent + 10 μM Retinol”, the “% of Control” value turned out to be 78.6%. Where the note is “Experiment B (n = 3), 10 μM test agent alone”, the “% of Control” value stood at 89.4%. For the same compound, the “% of Control” value (Experiment B (n = 3), 100 μM test agent + 1 μM Retinol) is 19.7%. Besides, the “% of Control” value (Experiment B (n = 3), 100 μM test agent + 10 μM Retinol) is given as 26.5%. For the same compound, under “Experiment B (n = 3), 100 μM test agent alone”, the “% of Control” value is on record as 23.5%.
Take `COc1ccc(OC)c(C(C)NC/C=C(\C)CCC=C(C)C)c1` (centres unmarked) [Compound C]: the “sebum suppressive activity (in words)” value is reported as “had sebum suppressive activity”. Besides, the “% of Control” value (96 Well Plate (n = 2), 10 μM test agent + 1 μM Retinol) was 45.2%. In addition, the “% of Control” value (96 Well Plate (n = 2), 10 μM test agent alone) amounted to 72.3%. Further, the “% of Control” value (96 Well Plate (n = 2), 50 μM test agent + 1 μM Retinol) is recorded as 0.3%. For the same compound, for the setting “96 Well Plate (n = 2), 50 μM test agent alone”, the “% of Control” value was 34.2%. For the same compound, the “sebum suppressive activity when combined with retinol / a retinoid (in words)” value (in the presence of a retinoid (retinol)) was “improved sebum suppressive activity”.
For `O=S1(=O)OC(c2ccc(O)cc2)(c2ccc(O)cc2)c2ccccc21` [Phenol Red, reference compound], the activity at 28 µM (Homo sapiens, Experiment B (n = 3), 28 μM alone, read-out: % of Control) worked out at 86.4%. The activity at 280 µM (Homo sapiens, Experiment B (n = 3), 280 μM alone, read-out: % of Control) came out at 52.2%. In addition, where the note is “Table 3 (n = 4), 28 μM alone”, the “% Reduction” value was 74.7%.
As for `CC1=C(/C=C/C(C)=C/C=C/C(C)=C/C=O)C(C)(C)CCC1` [Retinal, reference compound], where the note is “Homo sapiens, Experiment B (n = 3), 1 μM test agent alone, read-out: % of Control”, the activity at 1 µM is 104%. Also, the activity at 10 µM (Homo sapiens, Experiment B (n = 3), 10 μM test agent alone, read-out: % of Control) turned out to be 101%.
Turning to `CC1=C(/C=C/C(C)=C/C=C/C(C)=C/CO)C(C)(C)CCC1` [Retinol, reference compound], the “sebum suppressive activity (in words)” value is “inactive”. The activity at 10 µM (Homo sapiens, Experiment A, 10 μM test agent alone, read-out: % of Control) was 98.3%.
